According to patent US12187709B2 (Genentech, Inc., priority 2021, dated 2025):

Tests used:
c-Cbl = c-Cbl (Homo sapiens (Human), UniProt P22681); assay: C-Cbl LCK Ub TR-FRET assay (C-cbl Lck HTRF); type: biochemical
Procedure, shortened: (§1)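 Detection reagents added, brief spin, 20 min RT. IC50 fit normalized to no-LCK (low) and DMSO (high) controls.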

Cbl-b = Cbl-b (Homo sapiens (Human), UniProt Q13191); assay: Cbl-b LCK Ub TR-FRET assay (Cbl-b Lck HTRF); type: biochemical; settings: for IC50: Cbl-b LCK Ub TR-FRET; for (fold-selectivity) Cbl-b and C-Cbl Selectivity / fold-selectivity (Cbl-b over C-cbl): ratio C-cbl Lck HTRF IC50 / Cbl-b Lck HTRF IC50
Sequence of Cbl-b (Q13191 40-426): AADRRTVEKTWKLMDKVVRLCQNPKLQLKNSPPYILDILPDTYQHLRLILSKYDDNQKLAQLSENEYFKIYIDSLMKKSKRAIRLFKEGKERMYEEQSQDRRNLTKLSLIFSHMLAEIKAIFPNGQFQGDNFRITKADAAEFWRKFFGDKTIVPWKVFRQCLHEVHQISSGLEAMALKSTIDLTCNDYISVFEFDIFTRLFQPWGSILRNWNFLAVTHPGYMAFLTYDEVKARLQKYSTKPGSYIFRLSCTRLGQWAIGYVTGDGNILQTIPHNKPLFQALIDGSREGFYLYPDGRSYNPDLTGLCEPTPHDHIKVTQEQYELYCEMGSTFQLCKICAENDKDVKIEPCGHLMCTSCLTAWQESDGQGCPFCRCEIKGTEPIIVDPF
Procedure, shortened: as §1

c-Cbl (residues 47-435) = c-Cbl (residues 47-435) (Homo sapiens (Human), UniProt P22681); assay: c-Cbl SPR assay; type: binding; settings: 20° C.
Sequence of c-Cbl (residues 47-435) (P22681 47-435): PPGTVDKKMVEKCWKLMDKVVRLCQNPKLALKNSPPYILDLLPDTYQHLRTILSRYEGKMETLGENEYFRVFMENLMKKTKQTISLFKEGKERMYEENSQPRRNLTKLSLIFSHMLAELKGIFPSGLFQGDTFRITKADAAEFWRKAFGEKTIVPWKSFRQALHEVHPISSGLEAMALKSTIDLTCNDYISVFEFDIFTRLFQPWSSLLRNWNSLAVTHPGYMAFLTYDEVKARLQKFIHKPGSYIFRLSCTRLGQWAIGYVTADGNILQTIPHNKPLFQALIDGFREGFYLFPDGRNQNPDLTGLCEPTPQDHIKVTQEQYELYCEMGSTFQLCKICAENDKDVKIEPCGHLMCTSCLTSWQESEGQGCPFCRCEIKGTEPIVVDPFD
Procedure, shortened: (§2)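 Captured protein (1300-1500 RU for both isoforms) was probed in multi-cycle kinetics with 6 concentrations in 2-fold dilution, 60 s contact, 40 μl/min, dissociation 120-1200 s, double-referenced. Kinetic and affinity parameters came from a 1:1 binding fit. For slow off-rates, kd was set independently by a chaser-based method.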

[1] = target: Human Cbl-b (residues 40-426) (Homo sapiens (Human), UniProt Q13191); assay: Cbl-b SPR assay; type: binding; settings: for Fold of selectivity: C-cbl SPR Kd vs Cbl-b SPR Kd; for Kd: SPR, 20° C.
Sequence of Human Cbl-b (residues 40-426) (Q13191 40-426): as the sequence (Q13191 40-426) above
Procedure, shortened: as §2

Sequence of c-Cbl (P22681 47-435): as the sequence (P22681 47-435) above

IC50 (c-Cbl) | IC50 (Cbl-b; Example 121) | (fold-selectivity) Cbl-b and C-Cbl Selectivity (Cbl-b) | Kd (c-Cbl (residues 47-435)) | Fold of selectivity [1] | Kd [1] | IC50 (Cbl-b) | fold-selectivity (Cbl-b over C-cbl) (Cbl-b) | SMILES
48 nM | 11 nM | 4.2x | 63 nM | 13× | 5 nM |  |  | CO[C@H]1C[C@](c2cccc(N3Cc4c(cc(CNCC5CC5)cc4C(F)(F)F)C3=O)c2)(c2nncn2C)C1 [Compound 415, 6-(((cyclopropylmethyl)amino)methyl)-2-(3-((1r,3r)-3-methoxy-1-(4-methyl-4H-1,2,4-triazol-3-yl)cyclobutyl)phenyl)-4-(trifluoromethyl)isoindolin-1-one]
3200 nM | 360 nM | 8.8 x | 3400 nM | 18× | 190 nM |  |  | Cn1cnnc1[C@H](c1cccc(N2Cc3c(cc(CNC4(C)CCC4)cc3C(F)F)C2=O)c1)C1CC(F)C1 (stereo partly drawn) [Compound 461, 4-(difluoromethyl)-2-(3-((S)-((1s,3R)-3-fluorocyclobutyl)(4-methyl-4H-1,2,4-triazol-3-yl)methyl)phenyl)-6-(((1-methylcyclobutyl)amino)methyl)isoindolin-1-one]
2300 nM |  |  | 1700 nM | 2.1× | 800 nM | 1100 nM | 2.0x | C[C@@H](c1cccc(N2Cc3c(cc(CNC4(C)CCC4)cc3C(F)(F)F)C2=O)c1)c1nncn1C (single isomer, unassigned) [Compound 171, 2-(3-(1-(4-methyl-4H-1,2,4-triazol-3-yl)ethyl)phenyl)-6-(((1-methylcyclobutyl)amino)methyl)-4-(trifluoromethyl)isoindolin-1-one]
350 nM |  |  | 1300 nM | 3.8× | 370 nM | 200 nM | 1.8x | Cn1cnnc1[C@H](c1cccc(N2Cc3c(cc(CNC4(C)CCC4)cc3C(F)(F)F)C2=O)c1)[C@H]1C[C@H](C#N)C1 (single isomer, unassigned) [Compound 142]
13 nM |  |  | 4.4 nM | 4.4× | 1 nM | 13 nM | 1.0x | CNc1cc(N2Cc3c(cc(CNC4(C)CCC4)cc3C(F)(F)F)C2=O)cc([C@]2(c3nncn3C)C[C@H](OC)C2)c1 [Compound 239, 2-(3-((1r,3r)-3-methoxy-1-(4-methyl-4H-1,2,4-triazol-3-yl)cyclobutyl)-5-(methylamino)phenyl)-6-(((1-methylcyclobutyl)amino)methyl)-4-(trifluoromethyl)isoindolin-1-one]
85 nM | 16 nM | 5.3x | 120 nM | 12× | 10 nM |  |  | CO[C@H]1C[C@](c2cccc(N3Cc4c(cc(CNC5C[C@@H]6C[C@H]5CO6)cc4C(F)(F)F)C3=O)c2)(c2nncn2C)C1 (stereo partly drawn) [Compound 500, 6-((2-oxabicyclo[2.2.1]heptan-5-ylamino)methyl)-2-(3-((1r,3r)-3-methoxy-1-(4-methyl-4H-1,2,4-triazol-3-y)cyclobutyl)phenyl)-4-(trifluoromethyl)isoindolin-1-one]
18 nM |  |  | 11 nM | 3.6× | 3 nM | 12 nM | 1.5x | COc1cc(N2Cc3c(cc(CNC4(C)CCC4)cc3C(F)(F)F)C2=O)cc([C@]2(c3nncn3C)C[C@H](OC)C2)c1 [Compound 201, 2-(3-methoxy-5-((1r,3r)-3-methoxy-1-(4-methyl-4H-1,2,4-triazol-3-yl)cyclobutyl)phenyl)-6-(((1-methylcyclobutyl)amino)methyl)-4-(trifluoromethyl)isoindolin-1-one]
43 nM |  |  | 23 nM | 6.9× | 3.3 nM | 11 nM | 3.9x | CO[C@H]1C[C@@](c2cc(NC3CCCC3)nc(N3Cc4c(cc(CNC5(C)CCC5)cc4C(F)(F)F)C3=O)c2)(c2nncn2C)C1 [Compound 8, 2-(6-(cyclopentylamino)-4-((1s,3s)-3-methoxy-1-(4-methyl-4H-1,2,4-triazol-3-yl)cyclobutyl)pyridin-2-yl)-6-(((1-methylcyclobutyl)amino)methyl)-4-(trifluoromethyl)isoindolin-1-one]
230 nM |  |  | 130 nM | 6.1× | 21 nM | 68 nM | 3.4x | C[C@H]1C[C@@](c2cccc(N3Cc4c(cc(CNC5(C)CCC5)cc4C(F)(F)F)C3=O)c2)(c2nncn2C)O1 [Compound 123, 2-(3-((2R,4S)-4-methyl-2-(4-methyl-4H-1,2,4-triazol-3-yl)oxetan-2-yl)phenyl)-6-(((1-methylcyclobutyl)amino)methyl)-4-(trifluoromethyl)isoindolin-1-one]
158 nM |  |  | 220 nM | 20× | 11 nM | 17 nM | (9.3x) | CO[C@H]1C[C@](c2cc(NC3CCCC3)nc(N3Cc4c(cc(CNC5(C)CCC5)cc4C(F)(F)F)C3=O)c2)(c2nncn2C)C1 [Compound 70, 2-(6-(cyclopentylamino)-4-((1R,3R)-3-methoxy-1-(4-methyl-4H-1,2,4-triazol-3-yl)cyclobutyl)pyridin-2-yl)-6-(((1-methylcyclobutyl)amino)methyl)-4-(trifluoromethyl)isoindolin-1-one]
16 nM |  |  | 1.1 nM | 5.5× | 0.22 nM | 16 nM | 1.0x | Cn1cnnc1[C@H](c1cccc(N2Cc3c(cc(CNC4(C)CCC4)cc3C(F)(F)F)C2=O)c1)C1CCC1 (single isomer, unassigned) [Compound 259]
75 nM | 16 nM | 4.7x | 75 nM | 13× | 6 nM |  |  | CO[C@H]1C[C@](c2cccc(N3Cc4c(cc(CNCC5(CO)CC6CC6C5)cc4C(F)(F)F)C3=O)c2)(c2nncn2C)C1 (stereo partly drawn) [Compound 509, 6-((((3-(hydroxymethyl)bicyclo[3.1.0]hexan-3-yl)methyl)amino)methyl)-2-(3-((1r,3r)-3-methoxy-1-(4-methyl-4H-1,2,4-triazol-3-yl)cyclobutyl)phenyl)-4-(trifluoromethyl)isoindolin-1-one]
5.1 nM |  |  | 1.1 nM | 3.2× | 0.37 nM | 5.5 nM | (0.93x) | CCNc1cc(C2(c3nncn3C)CC(F)(F)C2)cc(N2Cc3c(cc(CNC4(C)CCC4)cc3C(F)(F)F)C2=O)n1 [Compound 17, 2-(4-(3,3-difluoro-1-(4-methyl-4H-1,2,4-triazol-3-yl)cyclobutyl)-6-(ethylamino)pyridin-2-yl)-6-(((1-methylcyclobutyl)amino)methyl)-4-(trifluoromethyl)isoindolin-1-one]
8300 nM |  |  | 9900 nM | 5.5× | 1800 nM | 1500 nM | 5.6x | CO[C@H]1C[C@](c2cccc(N3Cc4c(cccc4C(F)(F)F)C3=O)c2)(c2nncn2C)C1 [Compound 196, 2-(3-((1r,3r)-3-methoxy-1-(4-methyl-4H-1,2,4-triazol-3-yl)cyclobutyl)phenyl)-4-(trifluoromethyl)isoindolin-1-one]
500 nM | 100 nM | 5.0x | 840 nM | 8.7× | 96 nM |  |  | CO[C@H]1C[C@](c2cccc(N3Cc4c(cc(CN5CC6(CC6)C5)cc4C(F)(F)F)C3=O)c2)(c2nncn2C)C1 [Compound 423, 6-(5-azaspiro[2.3]hexan-5-ylmethyl)-2-(3-((1r,3r)-3-methoxy-1-(4-methyl-4H-1,2,4-triazol-3-yl)cyclobutyl)phenyl)-4-(trifluoromethyl)isoindolin-1-one]
60 nM | 13 nM | 4.6x | 9.9 nM | 15× | 6.6 nM |  |  | CO[C@H]1C[C@](c2cccc(N3Cc4c(cc(CNC5CC6(C5)CC6(F)F)cc4C(F)(F)F)C3=O)c2)(c2nncn2C)C1 (stereo partly drawn) [Compound 426, 6-(((1,1-difluorospiro[2.3]hexan-5-yl)amino)methyl)-2-(3-((1r,3r)-3-methoxy-1-(4-methyl-4H-1,2,4-triazol-3-yl)cyclobutyl)phenyl)-4-(trifluoromethyl)isoindolin-1-one]
1500 nM |  |  | 850 nM | 0.88× | 980 nM | 830 nM | 1.9x | Cn1cnnc1[C@@H](c1cccc(N2Cc3c(cc(CNC4(C)CCC4)cc3C(F)(F)F)C2=O)c1)[C@H]1C[C@@H](C#N)C1 (single isomer, unassigned) [Compound 140]
93 nM | 17 nM | 5.6x | 130 nM | 11× | 11 nM |  |  | CO[C@H]1C[C@](c2cccc(N3Cc4c(cc(CNC5CC5)cc4C(F)(F)F)C3=O)c2)(c2nncn2C)C1 [Compound 477, 6-((cyclopropylamino)methyl)-2-(3-((1r,3r)-3-methoxy-1-(4-methyl-4H-1,2,4-triazol-3-yl)cyclobutyl)phenyl)-4-(trifluoromethyl)isoindolin-1-one]
